Measured values reported in ChEMBL document CHEMBL1134339, “New 1-aryl-3-(4-arylpiperazin-1-yl)propane derivatives, with dual action at 5-HT1A serotonin receptors and serotonin transporter, as a new class of antidepressants” (J Med Chem, 2001).

Legend:
[1] = target: T1, 5-hydroxytryptamine receptor 1A (Homo sapiens) (UniProt P08908); conditions: HeLa
T1 sequence (whole entry): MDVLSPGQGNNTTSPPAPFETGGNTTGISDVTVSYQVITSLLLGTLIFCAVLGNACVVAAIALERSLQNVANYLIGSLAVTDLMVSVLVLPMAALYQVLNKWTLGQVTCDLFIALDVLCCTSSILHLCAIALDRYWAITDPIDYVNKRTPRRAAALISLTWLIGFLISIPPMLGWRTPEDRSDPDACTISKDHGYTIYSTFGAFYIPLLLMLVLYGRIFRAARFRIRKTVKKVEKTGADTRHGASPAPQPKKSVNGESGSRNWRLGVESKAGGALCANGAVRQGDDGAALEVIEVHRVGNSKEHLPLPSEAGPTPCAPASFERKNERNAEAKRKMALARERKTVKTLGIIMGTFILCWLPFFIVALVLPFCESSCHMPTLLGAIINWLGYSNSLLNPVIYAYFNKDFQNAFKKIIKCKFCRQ
Description: Effect on Forskolin-Stimulated cAMP formation, in HeLa cells transfected with the 5-HT 1A receptor at 1 uM concentration

Mus musculus [2] = experiment: Antidepressant-like activity in the forced swimming test (FST) in mice at 10 mg/kg dose; Antidepressant like activity; assay type: functional
[3] = target: T2, 5-hydroxytryptamine receptor 1A (Rattus norvegicus, UniProt P19327); experiment: Binding affinity to 5-hydroxytryptamine 1A receptor (5-HT 1A receptor, serotonin receptor) from rat cortex using [3H]8-OH-DPAT as radioligand
T2 sequence (P19327 whole entry): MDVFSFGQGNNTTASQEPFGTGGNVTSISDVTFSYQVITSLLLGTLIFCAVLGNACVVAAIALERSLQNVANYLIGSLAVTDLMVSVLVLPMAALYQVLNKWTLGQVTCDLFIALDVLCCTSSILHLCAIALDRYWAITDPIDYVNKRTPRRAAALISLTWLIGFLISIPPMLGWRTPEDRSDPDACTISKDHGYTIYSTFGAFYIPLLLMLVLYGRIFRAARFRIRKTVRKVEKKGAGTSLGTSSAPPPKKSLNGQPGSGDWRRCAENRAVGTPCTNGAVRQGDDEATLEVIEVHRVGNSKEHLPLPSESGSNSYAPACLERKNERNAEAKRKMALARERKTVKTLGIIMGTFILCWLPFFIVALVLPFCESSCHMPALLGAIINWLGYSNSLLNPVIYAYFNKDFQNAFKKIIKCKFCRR

[4] = target: T1, 5-hydroxytryptamine receptor 1A (Homo sapiens); experiment: Percent increase in the Forskolin-Stimulated cAMP formation, in HeLa cells transfected with the 5-HT 1A receptor [compound (1 uM)]; assay type: functional, cell-based
Mus musculus [5] = experiment: Time-dependent effect on 8-OH-DPAT-induced hypothermia (change in body temperature) after 60 min, in mice at 0.5 mg/kg dose; assay type: functional
Mus musculus [6] = experiment: Time-dependent effect on 8-OH-DPAT-induced hypothermia (change in body temperature) after 60 min, in mice at 5 mg/kg dose; assay type: functional
[7] = target: T1, 5-hydroxytryptamine receptor 1A (Homo sapiens); experiment: Percent increase in the Forskolin-Stimulated cAMP formation, in HeLa cells transfected with the 5-HT 1A receptor at 1 uM concentration; assay type: functional, cell-based
[8] = target: T1, 5-hydroxytryptamine receptor 1A (Homo sapiens); conditions: HeLa; remark: listed apart in the source
Description: Effect (1 uM) on Forskolin-Stimulated cAMP formation, in HeLa cells transfected with the 5-HT 1A receptor

Mus musculus [9] = experiment: Effect on immobility time in the forced swimming test (FST) in mice at 10 mg/kg dose; assay type: functional
Mus musculus [10] = experiment: Antidepressant-like activity in the forced swimming test (FST) in mice at 0.1 mg/kg dose; Antidepressant like activity; assay type: functional
Mus musculus [11] = experiment: Effect on immobility time in the forced swimming test (FST) in mice at 1 mg/kg dose; assay type: functional
Mus musculus [12] = experiment: Time-dependent effect on 8-OH-DPAT-induced hypothermia (change in body temperature) after 15 min, in mice at 0.5 mg/kg dose; assay type: functional
Mus musculus [13] = experiment: Time-dependent effect on 8-OH-DPAT-induced hypothermia (change in body temperature) after 15 min, in mice at 5 mg/kg dose; assay type: functional
[14] = target: Sodium-dependent serotonin transporter (Rattus norvegicus, UniProt P31652); experiment: Binding affinity towards Serotonin transporter from rat cortex measured using [3H]paroxetine
Sequence of Sodium-dependent serotonin transporter (P31652 whole entry): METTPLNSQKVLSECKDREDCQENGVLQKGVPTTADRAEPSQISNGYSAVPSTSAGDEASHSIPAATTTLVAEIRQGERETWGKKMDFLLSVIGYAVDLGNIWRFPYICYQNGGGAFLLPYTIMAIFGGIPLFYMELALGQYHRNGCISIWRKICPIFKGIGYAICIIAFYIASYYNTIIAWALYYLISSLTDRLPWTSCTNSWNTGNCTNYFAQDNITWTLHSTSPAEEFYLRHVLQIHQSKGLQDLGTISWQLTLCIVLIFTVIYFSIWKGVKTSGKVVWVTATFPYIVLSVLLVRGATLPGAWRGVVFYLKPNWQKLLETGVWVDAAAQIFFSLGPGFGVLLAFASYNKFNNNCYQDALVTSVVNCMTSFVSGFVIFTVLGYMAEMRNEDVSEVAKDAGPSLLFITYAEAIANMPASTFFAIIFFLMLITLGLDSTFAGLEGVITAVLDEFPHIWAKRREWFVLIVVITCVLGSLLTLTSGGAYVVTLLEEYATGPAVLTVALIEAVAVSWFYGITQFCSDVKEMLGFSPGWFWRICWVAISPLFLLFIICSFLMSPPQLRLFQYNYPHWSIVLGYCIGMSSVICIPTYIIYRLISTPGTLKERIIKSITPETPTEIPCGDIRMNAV

Mus musculus [15] = experiment: Effect on immobility time in the forced swimming test (FST) in mice at 0.1 mg/kg dose; assay type: functional
Mus musculus [16] = experiment: Effect on immobility time in the forced swimming test (FST) in mice at 0 mg/kg dose; assay type: functional
Mus musculus [17] = experiment: Time-dependent effect on 8-OH-DPAT-induced hypothermia (change in body temperature) after 30 min, in mice at 0.5 mg/kg dose; assay type: functional
Mus musculus [18] = experiment: Antidepressant-like activity in the forced swimming test (FST) in mice at 1 mg/kg dose; Antidepressant like activity; assay type: functional
Mus musculus [19] = experiment: Time-dependent effect on 8-OH-DPAT-induced hypothermia (change in body temperature) after 30 min, in mice at 5 mg/kg dose; assay type: functional
Mus musculus [20] = experiment: Time-dependent effect on 8-OH-DPAT-induced hypothermia (change in body temperature) after 60 min, in mice at 1 mg/kg dose; assay type: functional
Mus musculus [21] = experiment: Time-dependent effect on 8-OH-DPAT-induced hypothermia (change in body temperature) after 30 min, in mice at 1 mg/kg dose; assay type: functional
Mus musculus [22] = experiment: Time-dependent effect on 8-OH-DPAT-induced hypothermia (change in body temperature) after 15 min, in mice at 1 mg/kg dose; assay type: functional
Rattus norvegicus [23] = experiment: Effect on helpless behavior in rats and the number of escape failures was determined in shuttle-box session-3 (SB-3) at 10 mg/kg dose; assay type: functional
Rattus norvegicus [24] = experiment: Effect on helpless behavior in rats and the number of escape failures was determined in shuttle-box session-2 (SB-2) at 10 mg/kg dose; assay type: functional
Rattus norvegicus [25] = experiment: Effect on helpless behavior in rats and the number of escape failures was determined in shuttle-box session-1 (SB-1) at 10 mg/kg dose; assay type: functional
[26] = target: T1, 5-hydroxytryptamine receptor 1A (Homo sapiens); experiment: Effect on Forskolin-Stimulated cAMP formation, in HeLa cells transfected with the 5-HT 1A receptor at 10 uM concentration; assay type: functional, cell-based
[27] = target: T1, 5-hydroxytryptamine receptor 1A (Homo sapiens); experiment: Percent increase in the Forskolin-Stimulated cAMP formation, in HeLa cells transfected with the 5-HT 1A receptor at 10 uM concentration; assay type: functional, cell-based
Mus musculus [28] = experiment: Antidepressant-like activity in the forced swimming test (FST) in mice at 0.01 mg/kg dose; Antidepressant like activity; assay type: functional
Mus musculus [29] = experiment: Effect on immobility time in the forced swimming test (FST) in mice at 0.01 mg/kg dose; assay type: functional
Mus musculus [30] = experiment: Antidepressant-like activity in the forced swimming test (FST) in mice at 1 mg/kg dose; assay type: functional
Mus musculus [31] = experiment: Antidepressant-like activity in the forced swimming test (FST) in mice at 10 mg/kg dose; assay type: functional
Mus musculus [32] = experiment: Antidepressant-like activity in the forced swimming test (FST) in mice at 0.1 mg/kg dose; assay type: functional
Rattus norvegicus [33] = experiment: Effect on helpless behavior in rats and the number of escape failures was determined in shuttle-box session-3 (SB-3) at 1 mg/kg dose; assay type: functional
Rattus norvegicus [34] = experiment: Effect on helpless behavior in rats and the number of escape failures was determined in shuttle-box session-2 (SB-2) at 1 mg/kg dose; assay type: functional
Rattus norvegicus [35] = experiment: Effect on helpless behavior in rats and the number of escape failures was determined in shuttle-box session-1 (SB-1) at 1 mg/kg dose; assay type: functional

Compound | Ki ([3]; read-out: Ki) | Temperature change (Mus musculus [5]) | Temperature change (Mus musculus [6]) | Immobility time (Mus musculus [9]) | Immobility time (Mus musculus [11]) | Temperature change (Mus musculus [12]) | Temperature change (Mus musculus [13]) | Ki ([14]; read-out: Ki) | Temperature change (Mus musculus [17]) | Temperature change (Mus musculus [19]) | other results
COc1ccccc1N1CCN(CC/C(=N\O)c2ccc(C)s2)CC1 | 130 nM | -1.11 °C | -0.94 °C | 126.2 s | <79.2 s | -2.12 °C | -1.41 °C | 65 nM | -2.05 °C | -1.31 °C | cAMP [1]: 7.4 pmol/well; Activity (Mus musculus [2]): 13%; cAMP increase [4]: 33%; cAMP increase [7]: 25%; cAMP [8]: 9.8 pmol/well; Activity (Mus musculus [10]): 0%; Immobility time (Mus musculus [15]): 151.6 s; Immobility time (Mus musculus [16]): 142.7 s; Activity (Mus musculus [18]): 51%
COc1ccccc1N1CCN(CCN(C(=O)C2CCCCC2)c2ccccn2)CC1 [WAY-100,635] | – | – | – | – | – | – | – | – | – | – | Temperature change (Mus musculus [20]): -0.35 °C; Temperature change (Mus musculus [21]): <-0.95 °C; Temperature change (Mus musculus [22]): <-0.71 °C
CN(C)CCC=C1c2ccccc2CCc2ccccc21 [AMITRIPTYLINE] | – | – | – | – | – | – | – | – | – | – | No. of escape failures (Rattus norvegicus [23]): <1.2; No. of escape failures (Rattus norvegicus [24]): <3.3; No. of escape failures (Rattus norvegicus [25]): <9
C=C[C@@]1(C)CC(=O)[C@]2(O)[C@@]3(C)[C@@H](O)CCC(C)(C)[C@@H]3[C@H](O)[C@H](OC(C)=O)[C@@]2(C)O1 | – | – | – | – | – | – | – | – | – | – | cAMP [26]: 29.7 pmol/well; Activity [27]: 100%
Oc1ccccc1N1CCN(CCC(O)c2csc3ccccc23)CC1 (stereo not given) | 18 nM | -1.38 °C | -1.32 °C | 160.9 s | 183.3 s | -2.54 °C | -3.17 °C | 39 nM | -2.01 °C | -2.2 °C | Activity (Mus musculus [2]): 11%; Activity (Mus musculus [28]): 0%; Activity (Mus musculus [10]): 40%; Immobility time (Mus musculus [15]): <112.5 s; Immobility time (Mus musculus [16]): 178 s; Immobility time (Mus musculus [29]): 186.1 s; Activity (Mus musculus [18]): 0%
COc1ccccc1N1CCN(CCC(O)c2cc(C)sc2C)CC1 (stereo not given) | – | -1.21 °C | -1.26 °C | 103 s | 111 s | -2.53 °C | -2.01 °C | 115 nM | -2.13 °C | -1.86 °C | Ki [3]: 12 nM; Activity (Mus musculus [30]): 13%; Activity (Mus musculus [31]): 20%; Immobility time (Mus musculus [16]): 124.3 s
Oc1ccccc1N1CCN(CCC(O)c2ccc3ccccc3c2)CC1 (stereo not given) | – | -1.12 °C | -0.93 °C | 24.4 s | 178.3 s | -2.52 °C | -1.97 °C | – | -2.03 °C | -2.41 °C | Activity (Mus musculus [2]): 93%; Ki [3]: 190 nM; Activity (Mus musculus [10]): 0%; Ki [14]: 190 nM; Activity (Mus musculus [18]): 0%
COc1ccccc1N1CCN(CCC(=O)c2ccsc2)CC1 | 16 nM | -1.48 °C | -1.88 °C | <44.9 s | <118.8 s | -2.52 °C | -2.76 °C | 112 nM | -2.04 °C | -2.18 °C | Activity (Mus musculus [32]): 0%; Activity (Mus musculus [30]): 34%; Activity (Mus musculus [31]): 83%; Immobility time (Mus musculus [15]): 169.5 s; Immobility time (Mus musculus [16]): 170.1 s
Fc1ccc([C@@H]2CCNC[C@H]2COc2ccc3c(c2)OCO3)cc1 [PAROXETINE] | – | – | – | – | – | – | – | – | – | – | No. of escape failures (Rattus norvegicus [33]): 2.2; No. of escape failures (Rattus norvegicus [34]): 3; No. of escape failures (Rattus norvegicus [35]): 3.3
COc1ccccc1N1CCN(CCC(O)c2ccc(-c3ccccc3)cc2)CC1 (stereo not given) | – | – | – | – | – | – | – | 175 nM | – | – | Ki [3]: 850 nM
OC(CCN1CCN(c2ccc(Cl)cc2)CC1)c1csc2ccccc12 (stereo not given) | 5000 nM | – | – | – | – | – | – | 50 nM | – | – | –
OC(CCN1CCN(c2ccc(Cl)cc2)CC1)c1ccccc1 (stereo not given) | 800 nM | – | – | – | – | – | – | 350 nM | – | – | –
COc1ccccc1N1CCN(CCC(O)c2ccccc2)CC1 (stereo not given) | – | – | – | – | – | – | – | > 5000 nM | – | – | Ki [3]: 47.5 nM
COc1ccc(OC(CCN2CCN(c3ccc(Cl)cc3)CC2)c2ccccc2)cc1 (stereo not given) | 1450 nM | – | – | – | – | – | – | 500 nM | – | – | –
O=[N+]([O-])c1ccc(N2CCN(CCC(Oc3ccc(C(F)(F)F)cc3)c3ccccc3)CC2)cc1 (stereo not given) | > 5000 nM | – | – | – | – | – | – | 2500 nM | – | – | –
